The numbers were not newly measured in patent publication EP0292255A2, “Inhibitor of ribonucleotide reductase” (Merck & Co., Inc., priority 1987, dated 1988), which cites them from elsewhere.

Ends that are not written are not given here.

The data set relates to ribonucleotide reductase enzyme of herpes simplex virus. The settings on record: result in words, from Nature 321:439-441 and 441-443 (1986).

“Tyr Ala Gly Ala Val Val Asn Asp Leu (YAGAVVNDL; printed: Tyr Ala Gly Ala Val Val Asn Asp Leu) [nonapeptide disclosed by Dutia et al. and Cohen et al]”: the “inhibition of the activity of the ribonucleotide reductase enzyme of herpes simplex virus in vitro” value is “inhibited”.

For “YGAVVNDL [8-desalanine homolog of the nonapeptide, disclosed by Dutia et al]”, the “inhibition of the activity of the ribonucleotide reductase enzyme of herpes simplex virus in vitro” value is on record as “inhibited”.
